Data reported in patent publication US11739305B2, “Sialyltransferase variants having neosialidase activity” (The Regents of the University of California, priority 2017, dated 2023).

Biological target: T1, Pd2,6ST S232L/T356S/W361F (Photobacterium damselae, UniProt O66375, S232L/T356S/W361F)
T1 construct: (Δ15Pd2, 6ST); His6 tag with thrombin site ([…]) (N); made in house; host or cells: E. coli BL21(DE3)
Test: Linkage specificity assays (relative sialidase activity towards sialosides, HPLC)
Format: biochemical
Conditions: for Relative sialidase activity: of Pd2,6ST S232L/T356S/W361F towards the sialoside, 1 mM substrate, 0.5 mM CMP, pH 6.0, 37° C., 30 minutes, relative to compound 2
Experimental: Reactions were performed in duplicate at 37° C. for 30 minutes in MES buffer (100 mM, pH 6.0), MgCl2 (10 mM), CMP (0.5 mM), and 1 mM substrate. Enzyme concentrations were 0.030 μM for 2, 0.30 μM for 7, 3.0 μM 6, and 30.0 μM for 3-5. These conditions provided testing at initial rates (1.2-24% yield) for each substrate. Reactions were stopped by adding an equal volume of pre-chilled methanol. The mixtures were incubated on ice for 30 minutes and centrifuged at 13,000 rpm for 5 minutes. Supernatants were analyzed with an Infinity 1290-II HPLC equipped with a UV-Vis detector (Agilent Technologies, CA). The HPLC procedure utilized a ZORBAX Eclipse Plus C18 Rapid Resolution HD 1.8 μm particle 2.1×50 mm column (Agilent Technologies, CA), an isocratic flow of 1 mL min′ for a 9% acetonitrile and 91% aqueous solution containing 0.1% TFA, and an injection volume of 2 μL. The para-nitrophenyl absorbance signal was monitored at 315 nm.

[1] = cleavage by Pd2,6ST S232L/T356S/W361F

CC(=O)N[C@H]1[C@H]([C@H](O)[C@H](O)CO)OC(OC[C@H]2O[C@@H](Oc3ccc([N+](=O)[O-])cc3)[C@H](O)[C@@H](O)[C@H]2O)(C(=O)O)C[C@@H]1O (stereo partly shown) [Compound 2, Neu5Acα2-6GalβpNP]
neosialidase activity toward the sialoside, in words [1]: suitable substrate
Relative sialidase activity: 1.0

CC(=O)N[C@H]1[C@H]([C@H](O)[C@H](O)CO)OC(O[C@H]2[C@@H](O)[C@@H](CO)O[C@@H](Oc3ccc([N+](=O)[O-])cc3)[C@@H]2O)(C(=O)O)C[C@@H]1O (stereo partly shown) [Compound 3, Neu5Acα2-3GalβpNP]
activity lower than toward Neu5Acα2-6GalβpNP (2) [1]: ~400 fold
Relative sialidase activity: 2.5 × 10^−3

CC(=O)NC1C(O)CC(OC(CO)C(O)C2OC(OC3C(O)C(CO)OC(Oc4ccc([N+](=O)[O-])cc4)C3O)(C(=O)O)CC(O)C2NC(C)=O)(C(=O)O)OC1C(O)C(O)CO (stereo not shown) [Compound 4, Neu5Acα2-8Neu5Acα2-3GalβpNP]
neosialidase activity toward the sialoside, in words [1]: not detected
Relative sialidase activity: 3.3 × 10^−3

O=C(O)C1(OCC2OC(Oc3ccc([N+](=O)[O-])cc3)C(O)C(O)C2O)CC(O)C(O)C(C(O)C(O)CO)O1 (stereo not shown) [Compound 5, Kdnα2-6GalβpNP]
cleavage rate as percent of the rate of Neu5Acα2-6GalβpNP (2) [1]: 0.1%
neosialidase activity toward the sialoside, in words [1]: not a suitable substrate
Relative sialidase activity: 9.8 × 10^−4

O=C(CO)NC1C(O)CC(OCC2OC(Oc3ccc([N+](=O)[O-])cc3)C(O)C(O)C2O)(C(=O)O)OC1C(O)C(O)CO (stereo not shown) [Compound 6, Neu5Gcα2-6GalβpNP]
cleavage rate as percent of the rate of Neu5Acα2-6GalβpNP (2) [1]: approximately 12%
Relative sialidase activity: 1.2 × 10^−1

CC(=O)NC1C(Oc2ccc([N+](=O)[O-])cc2)OC(COC2(C(=O)O)CC(O)C(NC(C)=O)C(C(O)C(O)CO)O2)C(O)C1O (stereo not shown) [Compound 7, Neu5Acα2-6GalNAcβpNP]
neosialidase activity toward the sialoside, in words [1]: higher
Relative sialidase activity: 1.9
